Assay [1] relates to A. citrulli M6. In words: Bactericidal (killing) activity of LAE@Cu composites in vitro. The note with it: LAE at 1.25 ppm, 30 min. Type of assay: cell-based, Acidovorax citrulli. The procedure:
Assessment of bactericidal activity of LAE @Cu composites in vitro: Bactericidal activity of LAE@Cu composites was tested by adding the composites to 50 ml-PBS suspensions containing ˜10^7 colony forming units (CFU)/ml of A. citrulli M6. The suspensions were incubated at 30° C. with shaking for 30 min. Then, the concentrations of viable bacteria were determined following plating of serial dilutions on nutrient agar (NA, Difco) plates.
Bacterial killing assay: The bactericidal (killing) activity of LAE@[Cu] composites at a concentration of 25 ppm (1.25 mg in 50 ml), were tested in PBS containing ˜107 (CFU)/mL. The suspensions were incubated at 30° C. with shaking for 30 min. Then, the viable bacteria were determined following plating of serial dilutions on NA (nutrient agar) plates. Controls included @[Cu], the composite-like compound without LAE, and the commercial bactericide, Kocide®, at the same concentrations.

Assay [2] deals with A. citrulli M6. In words: In planta assay, A. citrulli-melon pathosystem. It counts as in vivo, melon (cv. AN-305). The note with it: 200 ppm @[Cu], 10 ppm LAE; 5 days after inoculation. The source says:
Assessment of the ability of the LAE @Cu composites to reduce disease: To assess the potential of LAE@Cu composites for management of bacterial plant diseases, we carried out experiments using the A. citrulli-melon pathosystem. In these experiments, the foliage of three-week-old plants of melon (cv. AN-305; Origene Seeds) were sprayed with LAE1.0@Cu composites at a concentration of 200 ppm. Additional treatments included spraying with 200 ppm of @Cu, 10 ppm of LAE (corresponding to the concentration of LAE in 200 ppm LAE×1.0@Cu) and the commercial bactericide Kocide, which was applied at the recommended concentration for management of the disease (2 mg/ml). As controls, foliage were sprayed with double distilled water (DDW). […] Disease severity of inoculated leaves was determined 5 days after inoculation, using the following scale: 0, no symptoms; 1, few minor lesions; 2, few small necrotic spots; 3, increased necrotic spots in less than 25% of the leaf area; 4, increased necrotic spots in 25 to 50% of the leaf area; and 5, increased necrotic spots in more than 50% of the leaf area and dead leaf. The data were statistically analyzed by one-way analysis of variance (ANOVA) and Tukey's honest significant difference (HSD) test.
In-planta assay: Melon plants (cv. AN-305; Origene Seeds) were grown in a growth chamber at 28° C. […] Disease severity was determined 5 days after inoculation.

The structures appear in SMILES notation.

Consider `CCCCCCCCCCCC(=O)N[C@@H](CCCN=C(N)N)C(=O)OCC` [LAE, Lauroyl arginate ethyl ester], for which the “reduction of the A. citrulli population” value in the assay with A. citrulli M6 [1] is 2 orders of magnitude. For the same molecule, the “reduction of disease severity as compared with non-treated controls” value with A. citrulli M6 [2] is 29%.
